Key:
Type in all cases: in vivo
[1] = tested on: laser-induced CNV in C57BL/6 mice; experiment: Laser-induced CNV in C57/BL6 mice, fluorescein angiography
Description: Adult 12 weeks old female C57BL/6 mice were used to generate the laser-induced CNV model. Mice were anesthetized by intraperitoneal ketamine hydrochloride (25 mg/kg) and xylazine (10 mg/kg) and their pupils dilated by topical tropicamide 1%. Laser-photocoagulation was performed a diode laser (680 nm; 210 mW power, 100 ms duration, 100 […]) under direct vision using a hand-held cover slide as a contact lens and were localized to the 2, 10, and 6 o'clock positions of the posterior pole of the retina in both eyes. These laser settings consistently generate a subretinal gas bubble which strongly correlates with laser-induced rupture of Bruch's membrane and successful induction of CNV. Only lesions in which a bubble is formed were included in the analysis. Fluorescein angiography using a Kowa Genesis small animal fundus camera was conducted at 1 week and 2 weeks following induction of CNV. The size of CNV lesions were quantified by digital image analysis the mean area of hyperfluorescence per lesion during the early phase (90 seconds post fluorescein injection). The pupils were dilated by topical tropicamide 1% and fluorescein sodium 2% administered by intraperitoneal injection (0.2 ml). Eyes were excluded if there was significant cataract or keratopathy that could affect laser energy delivery or angiography.
Adult 12 weeks old female C57BL/6 mice were used to generate the laser-induced CNV (3 CNV lesions per mouse retina) model using laser photocoagulation and puncture of Bruch's membrane.
The statistical analysis conducted here is stringent in that number of observations are related to the number of animals treated whereas in most other studies (conducted in the wider literature) using this laser-induced model each lesion (3 CNV lesions per mouse retina) are regarded as independent observations. […] However it is clear that in the case of orally dosed pazopanib either statistical approach would have yielded a robust effect or as such the effect of CCR3 inhibitor '994 in this model appears weaker than orally dosed pazopanib.

[2] = tested on: spontaneous CNV in JR5558 mice; experiment: JR5558 spontaneous CNV model, quantitative immunohistochemistry (isolectin B4 whole-mount); settings: 8 mg/kg BID v Vehicle, 12 days P14-P26
Description: JR5558 mice develop CNV (on an atrophic background) spontaneously with CNV lesions first emerging approximately 12 days after birth. JR5558 mice were intraperitoneally treated with various amounts of a rat anti-mouse VEGF receptor (VEGFR)-2 blocking antibody (MAB4431; R&D systems) or a purified rat non-immune isotype match control IgG2α antibody (R&D systems) starting from P14 for a total of 10 doses in 11 days and CNV development was analyzed by fluorescein angiography (FA) 24 hours after the last dose on P25. For Mice treated with CCR3 inhibitor '994 they were dosed intraperitoneally or by eye drop with various concentrations of the drug starting at P14 for a total of 12 days and CNV development was analyzed by FA 24 hours after the last dose on P26. To study the combination effects of anti-VEGFR2 antibody and CCR3 inhibitor '994, mice were treated intraperitoneally with each material alone or in combination starting from P14 for a total of 10 doses in 11 days and CNV development was analyzed by FA 24 hours after the last dose on P25. […]
When CCR3 inhibitor '994 was dosed BID instead of QD, CCR3 inhibitor '994 also produced a significant effect in limiting both total lesion (see, FIG. 4, Table 5) area and total CNV number (see, FIG. 4, Table 6). […] Eyes were completely washed and then analysed by quantitative immunohistochemistry.

[3] = tested on: retinal neovascularization in C57BL/6 mice; experiment: Oxygen-induced retinopathy, area of retinal neovascularization; settings: hyperbaric oxygen
Description: C57BL/6 mice placed in 75% O2 at postnatal day (P) 7 and at P12 were returned to room air and treatment initiated with compound or vehicle. At P17, the area of retinal NV on the surface of the retina was measured as described previously (Shen et al., 2007). Briefly, P17 mice were given an intraocular injection of 1 μl of rat anti-mouse platelet endothelial cell adhesion molecule-1 (PECAM-1) antibody (Pharmingen, San Jose, Calif., USA); after 12 h, they were euthanized, and eyes were fixed in PBS-buffered formalin for 5 h at room temperature. Retinas were dissected, washed, and incubated with goat-anti rat polyclonal antibody conjugated with Alexa 488 (Invitrogen, Carlsbad, Calif., USA) at 1:500 dilution at room temperature for 45 min and flat mounted. An observer masked with respect to treatment group measured the area of NV per retina by image analysis.
(see, FIGS. 12 and 13). In systemic experiments both eyes were examined and no significant differences were observed between CCR3 inhibitor '994 and vehicle treated groups. In topical experiments no significant differences were noted between CCR3 inhibitor '994 and vehicle groups nor treated and fellow eye in the CCR3 inhibitor '994 treated group. […] Consequently SU4312 acts similarly on retinal neovascularization to that of an alternative receptor tyrosine kinase inhibitor pazopanib which was effective in limiting choroidal neovascularization.

[4] = Exposure after oral versus i.p. dosing in mice; settings: mouse; oral v i.p.

## NC(=O)c1ccc(CNC(=O)NC[C@H]2CN(Cc3ccc(Cl)c(Cl)c3)CCO2)cc1 [CCR3 inhibitor '994, 4-[[[[[[(2s)-4-[(3,4-dichlorophenyl)methyl]-2-morpholinyl]methyl]-amino]carbonyl]-amino]methyl]benzamide]
[1]; Table 1 study, 8 mg/kg po QD v Vehicle, Week 1
  Ratio of mean lesion sizes: 0.82
[1]; Table 1 study, 8 mg/kg po QD v Vehicle, Week 2
  Ratio of mean lesion sizes: 0.99
[1]; Table 1 study, 30 mg/kg '994 v 20 mg/kg Pazopanib, Week 1
  Ratio of mean lesion sizes: 1.47
[1]; Table 1 study, 30 mg/kg '994 v 20 mg/kg Pazopanib, Week 2
  Ratio of mean lesion sizes: 2.03
[1]; Table 1 study, 30 mg/kg po QD v Vehicle, Week 1
  Ratio of mean lesion sizes: 0.70
[1]; Table 1 study, 30 mg/kg po QD v Vehicle, Week 2
  Ratio of mean lesion sizes: 0.78
[1]; Table 2 (second) study, 2 mg/kg po QD v Vehicle, Week 1
  Ratio of mean lesion sizes: 0.93
[1]; Table 2 (second) study, 2 mg/kg po QD v Vehicle, Week 2
  Ratio of mean lesion sizes: 0.83
[1]; Table 2 (second) study, 8 mg/kg BID po v Vehicle, Week 1
  Ratio of mean lesion sizes: 0.80
[1]; Table 2 (second) study, 8 mg/kg BID po v Vehicle, Week 2
  Ratio of mean lesion sizes: 0.65
[1]; Table 2 (second) study, 8 mg/kg po QD v Vehicle, Week 1
  Ratio of mean lesion sizes: 0.81
[1]; Table 2 (second) study, 8 mg/kg po QD v Vehicle, Week 2
  Ratio of mean lesion sizes: 0.66
[1]; Table 2 (second) study, 30 mg/kg '994 v 20 mg/kg Pazopanib, Week 1
  Ratio of mean lesion sizes: 2.05
[1]; Table 2 (second) study, 30 mg/kg '994 v 20 mg/kg Pazopanib, Week 2
  Ratio of mean lesion sizes: 2.16
[1]; Table 2 (second) study, 30 mg/kg po QD v Vehicle, Week 1
  Ratio of mean lesion sizes: 0.62
[1]; Table 2 (second) study, 30 mg/kg po QD v Vehicle, Week 2
  Ratio of mean lesion sizes: 0.56
[2]
  Difference in mean number of CNV lesions per eye: −8.00
  Difference in mean total CNV area per eye: −76632
[3]; systemic 8 mg/kg BID i.p.
  effect on neovascularization of retinal vessels: did not have an effect
[3]; topically 5 ul 10 mg/ml BID
  effect on neovascularization of retinal vessels: did not have an effect
[4]
  reduction in exposure, oral dosing as compared to i.p dosing: 5 fold
